Results on 18 compounds are retold here after patent US20230086702A1, “SUBSTITUTED 2-AMINO-PYRAZOLYL-[1,2,4]TRIAZOLO[1,5A]PYRIDINE DERIVATIVES AND USE THEREOF” (The Johns Hopkins University, priority 2019, published 2023).

The target in one assay is T1, DLK (Homo sapiens, UniProt Q12852).
T1 construct: 10 nM DLK, catalytic domain, Carna Biosiences; purchased Carna Biosciences ('Carna Biosiences' [sic])
T1 sequence (Q12852 125-366 limits assumed): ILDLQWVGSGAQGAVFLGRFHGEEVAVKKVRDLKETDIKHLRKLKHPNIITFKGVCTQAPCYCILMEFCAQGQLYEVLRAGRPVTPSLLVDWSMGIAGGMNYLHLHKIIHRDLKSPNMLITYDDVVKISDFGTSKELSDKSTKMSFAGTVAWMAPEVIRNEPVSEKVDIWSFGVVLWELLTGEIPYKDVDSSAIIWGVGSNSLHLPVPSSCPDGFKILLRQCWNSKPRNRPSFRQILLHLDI
Nature of the assay: DLK biochemical assay (TR-FRET, MKK7 phosphorylation). An outline of the steps: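 TR-FRET read-out (665/Eu ratio) of MKK7 T275/S277 phosphorylation, with inhibition lowering the signal. Final conditions: 10 nM DLK catalytic domain, 15 nM MKK7, 60 μM ATP, 90 min at RT. Detection incubation 16 h at 37° C in 1536-well or 4° C in 384-well format.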

For the next assay, the target named is T2, LZK (Homo sapiens, UniProt O43283).
T2 construct: 10 nM LZK, catalytic domain, Carna Biosiences in assay buffer; purchased Carna Biosciences ('Carna Biosiences' [sic])
T2 sequence (O43283 168-409 limits assumed): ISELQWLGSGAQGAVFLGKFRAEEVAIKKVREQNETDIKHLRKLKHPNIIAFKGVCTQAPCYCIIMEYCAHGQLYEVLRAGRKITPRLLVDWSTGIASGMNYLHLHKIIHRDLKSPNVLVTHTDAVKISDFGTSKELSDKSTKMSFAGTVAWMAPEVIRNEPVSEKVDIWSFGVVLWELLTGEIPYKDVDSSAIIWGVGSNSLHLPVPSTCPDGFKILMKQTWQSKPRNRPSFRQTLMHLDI
As to the kind of experiment: LZK biochemical assay (TR-FRET, MKK7 phosphorylation). An outline of the steps: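 Read-out is HTRF: Eu-labelled anti-phospho-MKK7 (T275/S277) and XL665 anti-His, incubated 16 h at 32 °C, with a drop in signal marking inhibition. Reaction beforehand: 10 nM LZK kinase domain, 15 nM His-MKK7, 15 µM ATP (final) for 90 min at room temperature, pH 7.5.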

For the compound `CCC(c1ccc(C(F)(F)F)nc1)n1cc(-c2cc(-c3cnn(CC(F)F)c3)c3nc(N)nn3c2)cn1` (single isomer, unassigned) [II-109, 8-[1-(2,2-Difluoroethyl)-1H-pyrazol-4-yl]-6-(1-{1-[6-(trifluoromethyl)pyridin-3-yl]propyl}-1H-pyrazol-4-yl)[1,2,4]triazolo[1,5-a]pyridin-2-amine], the values for the IC50 against DLK and at LZK were 16 nM and 57 nM, respectively.

Take `CCC(c1ccc(C(F)(F)F)nc1)n1cc(-c2cc(-c3cnn(CC(F)F)c3)c3nc(N)nn3c2)cn1` (single isomer, unassigned) [II-110, 8-[1-(2,2-Difluoroethyl)-1H-pyrazol-4-yl]-6-(1-{1-[6-(trifluoromethyl)pyridin-3-yl]propyl}-1H-pyrazol-4-yl)[1,2,4]triazolo[1,5-a]pyridin-2-amine]: the IC50 worked out at 2.2 nM against DLK and 9.7 nM against LZK.

Regarding `CC[C@@H](c1ccc(C(F)(F)F)nc1)n1cc(-c2cc(-c3cnn(CC(F)(F)F)c3)c3nc(N)nn3c2)cn1` (single isomer, unassigned) [II-112, 8-[1-(2,2,2-trifluoroethyl)-1H-pyrazol-4-yl]-6-(1-{1-[6-(trifluoromethyl)pyridin-3-yl]propyl}-1H-pyrazol-4-yl)[1,2,4]triazolo[1,5-a]pyridin-2-amine], the IC50 at DLK was 4.7 nM; at LZK, 17 nM.

Turning to `CCC(c1ccc(C(F)(F)F)nc1)n1cc(-c2cc(-c3cnn(CC(F)(F)F)c3)c3nc(N)nn3c2)cn1` (single isomer, unassigned) [II-113, 8-[1-(2,2,2-trifluoroethyl)-1H-pyrazol-4-yl]-6-(1-{1-[6-(trifluoromethyl)pyridin-3-yl]propyl}-1H-pyrazol-4-yl)[1,2,4]triazolo[1,5-a]pyridin-2-amine], the concentration for half-maximal inhibition (IC50) against DLK was 23 nM; at LZK it was 59 nM.

For `CCC(c1ccc(OC(F)(F)F)nc1)n1cc(-c2cc(-c3cnn(CC(F)(F)F)c3)n3nc(N)nc3c2)cn1` (single isomer, unassigned) [II-115, 5-[1-(2,2,2-Trifluoroethyl)-1H-pyrazol-4-yl]-7-(1-{1-[6-(trifluoromethoxy)pyridin-3-yl]propyl}-1H-pyrazol-4-yl)[1,2,4]triazolo[1,5-a]pyridin-2-amine], the IC50 on DLK turned out to be 67 nM; on LZK, 138 nM.

For the compound `CC[C@@H](c1ccc(OC(F)(F)F)nc1)n1cc(-c2cc(-c3cnn(CC(F)(F)F)c3)n3nc(N)nc3c2)cn1` (single isomer, unassigned) [II-116, 5-[1-(2,2,2-Trifluoroethyl)-1H-pyrazol-4-yl]-7-(1-{1-[6-(trifluoromethoxy)pyridin-3-yl]propyl}-1H-pyrazol-4-yl)[1,2,4]triazolo[1,5-a]pyridin-2-amine], the concentration for half-maximal inhibition (IC50) stood at 9.7 nM against DLK and 22 nM against LZK.

For the compound `Nc1nc2c(-c3cnn(CC(F)(F)F)c3)cc(-c3cnn(C(c4ccc(C(F)(F)F)nc4)C4CCOCC4)c3)cn2n1` (single isomer, unassigned) [II-118, 6-(1-{Tetrahydro-2H-pyran-4-yl[6-(trifluoromethyl)pyridin-3-yl]methyl}-1H-pyrazol-4-yl)-8-[1-(2,2,2-trifluoroethyl)-1H-pyrazol-4-yl][1,2,4]triazolo[1,5-a]pyridin-2-amine], the concentration for half-maximal inhibition (IC50) against DLK was 0.6 nM; against LZK it was 2.6 nM.

For the compound `Nc1nc2c(-c3cnn(CC(F)(F)F)c3)cc(-c3cnn(C(c4ccc(C(F)(F)F)nc4)C4CCOCC4)c3)cn2n1` (single isomer, unassigned) [II-119, 6-(1-{Tetrahydro-2H-pyran-4-yl[6-(trifluoromethyl)pyridin-3-yl]methyl}-1H-pyrazol-4-yl)-8-[1-(2,2,2-trifluoroethyl)-1H-pyrazol-4-yl][1,2,4]triazolo[1,5-a]pyridin-2-amine], the IC50 against DLK stood at 4.7 nM; against LZK, 16 nM.

As to `CCC(c1ccc(C(F)(F)F)cc1)n1cc(-c2cc(-c3cnn(CC(F)(F)F)c3)n3nc(N)nc3c2)cn1` (single isomer, unassigned) [II-130, 5-[1-(2,2,2-Trifluoroethyl)-1H-pyrazol-4-yl]-7-(1-{1-[4-(trifluoromethyl)phenyl]propyl}-1H-pyrazol-4-yl)[1,2,4]triazolo[1,5-a]pyridin-2-amine], the half-inhibitory concentration (IC50) is 120 nM at DLK and 670 nM at LZK.

Take `CCC(c1ccc(C(F)(F)F)cc1)n1cc(-c2cc(-c3cnn(CC(F)(F)F)c3)n3nc(N)nc3c2)cn1` (single isomer, unassigned) [II-131, 5-[1-(2,2,2-Trifluoroethyl)-1H-pyrazol-4-yl]-7-(1-{1-[4-(trifluoromethyl)phenyl]propyl}-1H-pyrazol-4-yl)[1,2,4]triazolo[1,5-a]pyridin-2-amine]: the 50% inhibitory concentration (IC50) at DLK was 25 nM; against LZK, 165 nM.

As to `CCC(c1ccc(C(F)(F)F)cc1)n1cc(-c2cc(-c3cnn(C4CCCC4)c3)n3nc(N)nc3c2)cn1` (single isomer, unassigned) [II-133, 5-(1-Cyclopentyl-1H-pyrazol-4-yl)-7-(1-{1-[4-(trifluoromethyl)phenyl]propyl}-1H-pyrazol-4-yl)[1,2,4]triazolo[1,5-a]pyridin-2-amine], the half-inhibitory concentration (IC50) worked out at 45 nM at DLK and 130 nM at LZK.

In the case of `CCC(c1ccc(C(F)(F)F)cc1)n1cc(-c2cc(-c3cnn(C4CCCC4)c3)n3nc(N)nc3c2)cn1` (single isomer, unassigned) [II-134, 5-(1-Cyclopentyl-1H-pyrazol-4-yl)-7-(1-{1-[4-(trifluoromethyl)phenyl]propyl}-1H-pyrazol-4-yl)[1,2,4]triazolo[1,5-a]pyridin-2-amine], the figures for the IC50 at DLK and against LZK were 32 nM and 44 nM, respectively.

As for `COc1cc(C(C(C)C)n2cc(-c3cc(-c4cnn(CC(F)(F)F)c4)n4nc(N)nc4c3)cn2)ccn1` (single isomer, unassigned) [II-137, 7-{1-[1-(2-Methoxypyridin-4-yl)-2-methylpropyl]-1H-pyrazol-4-yl}-5-[1-(2,2,2-trifluoroethyl)-1H-pyrazol-4-yl][1,2,4]triazolo[1,5-a]pyridin-2-amine], the IC50 came to 40 nM against DLK and 720 nM on LZK.

Turning to `CC(C)C(c1ccc(C(F)(F)F)nc1)n1cc(-c2cc(-c3cnn(CC(F)(F)F)c3)n3nc(N)nc3c2)cn1` (single isomer, unassigned) [II-141, 7-(1-{2-Methyl-1-[6-(trifluoromethyl)pyridin-3-yl]propyl}-1H-pyrazol-4-yl)-5-[1-(2,2,2-trifluoroethyl)-1H-pyrazol-4-yl][1,2,4]triazolo[1,5-a]pyridin-2-amine], the results for the IC50 on DLK and against LZK were 23 nM and 140 nM, respectively.

Take `CC(C)C(c1ccc(C(F)(F)F)nc1)n1cc(-c2cc(-c3cnn(C4CCCC4)c3)n3nc(N)nc3c2)cn1` (single isomer, unassigned) [II-144, 5-(1-Cyclopentyl-1H-pyrazol-4-yl)-7-(1-{2-methyl-1-[6-(trifluoromethyl)pyridin-3-yl]propyl}-1H-pyrazol-4-yl)[1,2,4]triazolo[1,5-a]pyridin-2-amine]: the results for the half-maximal inhibitory concentration (IC50) on DLK and against LZK were 27 nM and 57 nM, respectively.

Take `Nc1nc2cc(-c3cnn(C(c4ccccc4)C4CCOCC4)c3)cc(-c3cnn(CC(F)(F)F)c3)n2n1` (single isomer, unassigned) [II-147, 7-{1-[Phenyl(tetrahydro-2H-pyran-4-yl)methyl]-1H-pyrazol-4-yl}-5-[1-(2,2,2-trifluoroethyl)-1H-pyrazol-4-yl][1,2,4]triazolo[1,5-a]pyridin-2-amine]: the 50% inhibitory concentration (IC50) against DLK came out at 2.3 nM; at LZK, 73 nM.

As for `Nc1nc2cc(-c3cnn(C(c4ccccc4)C4CCOCC4)c3)cc(-c3cnn(CC(F)(F)F)c3)n2n1` (single isomer, unassigned) [II-148, 7-{1-[Phenyl(tetrahydro-2H-pyran-4-yl)methyl]-1H-pyrazol-4-yl}-5-[1-(2,2,2-trifluoroethyl)-1H-pyrazol-4-yl][1,2,4]triazolo[1,5-a]pyridin-2-amine], the IC50 on DLK was 22 nM; against LZK, 170 nM.

Take `Nc1nc2cc(-c3cnn(C(c4ccc(C(F)(F)F)nc4)C4CCOCC4)c3)cc(-c3cnn(CC(F)(F)F)c3)n2n1` (single isomer, unassigned) [II-150, 7-(1-{Tetrahydro-2H-pyran-4-yl[6-(trifluoromethyl)pyridin-3-yl]methyl}-1H-pyrazol-4-yl)-5-[1-(2,2,2-trifluoroethyl)-1H-pyrazol-4-yl][1,2,4]triazolo[1,5-a]pyridin-2-amine]: the IC50 is 1.4 nM at DLK and 4.9 nM against LZK.
